Measurements: patent publication US4599352A, “Antineoplastic platinum (IV) complexes and compositions” (priority 1984, dated 1986)

Key:
IP L1210 = experiment: Activity against IP-implanted L1210 leukemia sensitive to cisplatin, 30 day test (Table 3); type: in vivo, Female CD2Fl mice
Experimental: (§1) Biological properties of the compounds of the present invention were determined following the protocol described in Cancer Chemotherapy Reports, Vol. 3, No. 3, 1972 which report is incorporated herein by reference.
(§2) Other known mechanisms of resistance for other classes of agents, such as gene amplification or target enzyme change or amplication, also need to be explored. The experiments summarized in Table 3 were conducted at the same time against both sublines using the same drug preparations. […] These experiments were repeated in a second laboratory as documented in Table 4. However, in these experiments the animals were held for 60 rather than 30 days to evaluate whether or not long-term survivors are produced after drug treatment in a more challenging setting.
This experiment (A8-00005 3LE31) was conducted at the Southern Research Institute, Birmingham, Ala. under the supervision of Dr. Daniel Griswold. The protocols were the same as those published previously (Geran et al., Cancer Chemotherapy Reports 3: No. 2, 1972 [Attachment 11]). 10^5 cells were implanted intraperitoneally in CD2Fl male mice on Day 0. Drug treatments were given intraperitoneally as single injections at the doses indicated on Days 1, 5 and 9 after tumor implantation. The diluent was saline except for NSC-271674 where 5% sodium bicarbonate was used. All drugs were prepared fresh on the day of injection, and all were administered in solution. Median survival times for both control and drug-treated mice were determined and expressed as a percentage (% T/C). Body weights were determined on Day 5 and expressed as a weight difference (body weight of the drug-treated animals minus that of the control animals in grams) (T-C). The diluent control animals lived a median of 8.4 days and gained 1.9 grams by Day 5 in this experiment. All animals, including Day 30 survivors, were used in the calculation of median survival times. The log10 change in tumor burden refers to the net log change in viable tumor cell population at the end of therapy (Rx) as compared to the start of therapy; e.g., a […] means that there was a […] and a 3 log change means there was a 1000-fold increase in tumor burden at the end of therapy. The tumor burden at the start of therapy was about 6.1×10^5 cells in this experiment.
These experiments (A8-00008 3LE31 and A8-00001 3DP31) were conducted concurrently at the Southern Research Institute, Birmingham, Ala. under the supervision of Dr. Daniel Griswold. See Table 4 for experimental details. The diluent control animals bearing L1210 leukemia lived a median of 8.6 days and gained 1.3 grams by Day 5. […] Female CD2Fl mice were used for these experiments.

IP L1210/Cisplatin = experiment: Activity against IP-implanted L1210/Cisplatin leukemia resistant to cisplatin, 30 day test (Table 3); type: in vivo, Female CD2Fl mice
Experimental: as §1, §2
This experiment (A8-00005 3LE31) was conducted at the Southern Research Institute, Birmingham, Ala. under the supervision of Dr. Daniel Griswold. The protocols were the same as those published previously (Geran et al., Cancer Chemotherapy Reports 3: No. 2, 1972 [Attachment 11]). 10^5 cells were implanted intraperitoneally in CD2Fl male mice on Day 0. Drug treatments were given intraperitoneally as single injections at the doses indicated on Days 1, 5 and 9 after tumor implantation. The diluent was saline except for NSC-271674 where 5% sodium bicarbonate was used. All drugs were prepared fresh on the day of injection, and all were administered in solution. Median survival times for both control and drug-treated mice were determined and expressed as a percentage (% T/C). Body weights were determined on Day 5 and expressed as a weight difference (body weight of the drug-treated animals minus that of the control animals in grams) (T-C). The diluent control animals lived a median of 8.4 days and gained 1.9 grams by Day 5 in this experiment. All animals, including Day 30 survivors, were used in the calculation of median survival times. The log10 change in tumor burden refers to the net log change in viable tumor cell population at the end of therapy (Rx) as compared to the start of therapy; e.g., a […] means that there was a […] and a 3 log change means there was a 1000-fold increase in tumor burden at the end of therapy. The tumor burden at the start of therapy was about 6.1×10^5 cells in this experiment. […]

[1] = test system: SC Implanted L1210 Leukemia; experiment: Activity against SC implanted L1210 leukemia following intravenous administration, once daily Days 1-5 (Table 5); type: in vivo, CD2Fl male mice; conditions: for Optimal Dose: IV once daily Days 1-5
Experimental: as §1
In another type of experiment the same platinum complexes were directly compared against the SC implanted L1210 following intravenous administration (Table 5).
This experiment (A8-00004 3LE32) was conducted at the Southern Research Institute, Birmingham, Ala. under the supervision of Dr. Daniel Griswold. The protocols were the same as those published previously (Attachment 11). 10^6 cells were implanted subcutaneously in CD2Fl male mice on Day 0. Drug treatments were given intravenously once daily at the doses indicated on Days 1-5 after tumor implantation. The dosage range tested included the highest and lowest doses indicated in the Table as well as intermediate values which were determined by multiplying each dose in turn by 0.5 starting with the highest dose. The diluent was saline except for NSC-271674 for which 5% sodium bicarbonate was used. All drugs were prepared fresh on the day of injection, and all were administered in solution. Median survival times for both control and drug-treated mice were determined and expressed as a percentage (% T/C). Body weights were determined on Day 5 and expressed as a weight difference (body weight of the drug-treated animals minus that of the control animals in grams) (T-C).

IP L1210 leukemia = experiment: Mouse optimal (highest tolerated) dose, IP L1210 leukemia, Days 1, 5 and 9 schedule (Table 7); type: in vivo
Description: *IP L1210 leukemia, Days 1, 5 and 9 schedule. Highest tolerated dose in a
least 2 of 3 experiments (i.e,. animal weight difference (testcontrol)

Row | Compound | 30 Day Survivors/Total (IP L1210; 1 mg/kg/dose) | Approx. Log10 Change in Tumor Burden at End of RX (IP L1210; 1 mg/kg/dose) | Median % T/C (IP L1210; 1 mg/kg/dose) | 30 Day Survivors/Total (IP L1210; 2 mg/kg/dose) | Approx. Log10 Change in Tumor Burden at End of RX (IP L1210; 2 mg/kg/dose) | Median % T/C (IP L1210; 2 mg/kg/dose) | 30 Day Survivors/Total (IP L1210; 4 mg/kg/dose) | Approx. Log10 Change in Tumor Burden at End of RX (IP L1210; 4 mg/kg/dose) | Median % T/C (IP L1210; 4 mg/kg/dose) | 30 Day Survivors/Total (IP L1210; 8 mg/kg/dose) | Approx. Log10 Change in Tumor Burden at End of RX (IP L1210; 8 mg/kg/dose) | Median % T/C (IP L1210; 8 mg/kg/dose) | 30 Day Survivors/Total (IP L1210; 16 mg/kg/dose) | Median % T/C (IP L1210; 16 mg/kg/dose) | 30 Day Survivors/Total (IP L1210/Cisplatin; 1 mg/kg/dose) | Approx. Log10 Change in Tumor Burden at End of RX (IP L1210/Cisplatin; 1 mg/kg/dose) | Median % T/C (IP L1210/Cisplatin; 1 mg/kg/dose) | 30 Day Survivors/Total (IP L1210/Cisplatin; 2 mg/kg/dose) | Approx. Log10 Change in Tumor Burden at End of RX (IP L1210/Cisplatin; 2 mg/kg/dose) | Median % T/C (IP L1210/Cisplatin; 2 mg/kg/dose) | further results
1 | Tetrachloro-cis-1,2-cyclohexanediamine platinum (IV) | 0/6 | ~2.8 log10 | 125% | 0/6 | ~2.6 log10 | 139% | 0/6 | ~2.4 log10 | 148% | 2/6 | ~-5.9 log10 | 325% | 1/6 | 267% | 0/6 | ~3.0 log10 | 105% | 0/6 | ~2.9 log10 | 110% | Approx. Log10 Change in Tumor Burden at End of RX (IP L1210; 16 mg/kg/dose): ~-5.7 log10; 30 Day Survivors/Total (IP L1210/Cisplatin; 4 mg/kg/dose): 0/6; Approx. Log10 Change in Tumor Burden at End of RX (IP L1210/Cisplatin; 4 mg/kg/dose): ~2.9 log10; Median % T/C (IP L1210/Cisplatin; 4 mg/kg/dose): 111%; 30 Day Survivors/Total (IP L1210/Cisplatin; 8 mg/kg/dose): 0/6; Approx. Log10 Change in Tumor Burden at End of RX (IP L1210/Cisplatin; 8 mg/kg/dose): ~2.4 log10; Median % T/C (IP L1210/Cisplatin; 8 mg/kg/dose): 138%; 30 Day Survivors/Total (IP L1210/Cisplatin; 16 mg/kg/dose): 3/6; Approx. Log10 Change in Tumor Burden at End of RX (IP L1210/Cisplatin; 16 mg/kg/dose): ~-5.9 log10; Median % T/C (IP L1210/Cisplatin; 16 mg/kg/dose): 322%; Body Weight Difference ([1]; 5 mg/kg/inj IV): -3.3 Grams; Median % T/C ([1]; 5 mg/kg/inj IV): 133%; Median Survival Time ([1]; 5 mg/kg/inj IV): 13.7 days; Optimal Dose [1]: 5.0 mg/kg/inj; Mouse Optimal Dose (highest tolerated dose in at least 2 of 3 experiments) (IP L1210 leukemia): 8 mg/kg
2 | [Cl][Pt]1([Cl])([Cl])([Cl])[NH]C2CCCCC2[NH]1 (stereo not drawn) [trans (d, l), (d,l)-Tetrachloro-trans-1,2-cyclohexanediamine platinum (IV)] | 0/6 | ~2.8 log10 | 125% | 0/6 | ~2.4 log10 | 151% | 2/6 | ~-1.5 log10 | 212% | 3/6 | ~-5.9 log10 | 348% | 1/6 | 143% | 0/6 | ~2.8 log10 | 115% | 0/6 | ~2.8 log10 | 118% | 30 Day Survivors/Total (IP L1210/Cisplatin; 4 mg/kg/dose): 2/6; Approx. Log10 Change in Tumor Burden at End of RX (IP L1210/Cisplatin; 4 mg/kg/dose): ~-3.4 log10; Median % T/C (IP L1210/Cisplatin; 4 mg/kg/dose): 225%; 30 Day Survivors/Total (IP L1210/Cisplatin; 8 mg/kg/dose): 4/6; Approx. Log10 Change in Tumor Burden at End of RX (IP L1210/Cisplatin; 8 mg/kg/dose): ~-5.9 log10; Median % T/C (IP L1210/Cisplatin; 8 mg/kg/dose): 322%; 30 Day Survivors/Total (IP L1210/Cisplatin; 16 mg/kg/dose): 1/6; Median % T/C (IP L1210/Cisplatin; 16 mg/kg/dose): 110%; Optimal Dose [1]: 2.5 mg/kg/inj; Mouse Optimal Dose (highest tolerated dose in at least 2 of 3 experiments) (IP L1210 leukemia): 8 mg/kg
